The values that follow come from patent EP0908457B1, “3-(1,2-benzisothiazol- and isoxazol-5-Y1)-2,4(1H,3H)-pyrimidinedione or thione and 3-(1,2-benzisothiazol- and isoxazol-5-y1)-4(3H)-pyrimidinone or thione herbicidal agents” (BASF AKTIENGESELLSCHAFT, priority 1997, dated 1999).

Type in all cases: in vivo
For experiment [1], the system named is Echinochloa oryzoides (Ard.) Fritsch. Nature of the experiment: Preemergence weed control under flooded paddy conditions, ECHORC (Watergrass (Calif.)). On herbicidal effect rating, ECHORC: meaning of each grade not given here. Particulars: preemergence, flooded paddy, rated three to four weeks after treatment.
The test system of another experiment is Cyperus iria. Nature of the experiment: Preemergence weed control under flooded paddy conditions, CYPIR (Rice Flatsedge). On herbicidal effect rating, CYPIR: meaning of each grade not given here. Particulars: preemergence, flooded paddy, rated three to four weeks after treatment.
For experiment [2], the system named is Cyperus serotinus, Rottb. Nature of the experiment: Preemergence weed control under flooded paddy conditions, CYPSE (Flatsedge). On herbicidal effect rating, CYPSE: meaning of each grade not given here. As to conditions: preemergence, rated three to four weeks after treatment.
The test system of experiment [3] is Monochoria vaginalis, Presl. Nature of the experiment: Preemergence weed control under flooded paddy conditions, MOOVA (Monochoria). On herbicidal effect rating, MOOVA: meaning of each grade not given here. Particulars: preemergence, flooded paddy, rated three to four weeks after treatment.
The subject of the next experiment is Sagittaria pygmaea, L. Nature of the experiment: Preemergence weed control under flooded paddy conditions, SAGPY (Arrowhead (Pygmaea)). On herbicidal effect rating, SAGPY: meaning of each grade not given here. Particulars: preemergence, flooded paddy, rated three to four weeks after treatment.

Consider `COc1ccc(CC(=O)OCc2nsc3ccc(-n4c(=O)cc(C(F)(F)F)n(C)c4=O)cc23)cc1OC` [Example 502, 2,4(1H,3H)-Pyrimidinedione, 3-[3-(hydroxymethyl)-1,2-benzisothiazol-5-yl]-1-methyl-6-(trifluoromethyl)-, (3,4-dimethoxyphenyl)acetate (ester)], for which the ECHORC herbicidal rating amounted to 3.0 in experiment [1] (0.0320 kg/ha), 3.0 in experiment [1] (0.0620 kg/ha), 5.0 in experiment [1] (0.1250 kg/ha) and 7.0 in experiment [1] (0.2500 kg/ha). In addition, the CYPIR herbicidal rating in the experiment with Cyperus iria (0.0320 kg/ha) worked out at 4.0; in the experiment with Cyperus iria (0.0620 kg/ha), 6.0; with Cyperus iria (0.1250 kg/ha) it was 9.0; with Cyperus iria (0.2500 kg/ha), 9.0. Moreover, the CYPSE herbicidal rating amounted to 0.0 in experiment [2] (0.0320 kg/ha), 2.0 in experiment [2] (0.0620 kg/ha) and 5.0 in experiment [2] (0.2500 kg/ha). Also, the MOOVA herbicidal rating in experiment [3] (0.0320 kg/ha) amounted to 6.0; in experiment [3] (0.0620 kg/ha), 6.0; in experiment [3] (0.1250 kg/ha) it was 7.0; in experiment [3] (0.2500 kg/ha), 9.0. The SAGPY herbicidal rating came to 0.0 in the experiment on Sagittaria pygmaea, L. (0.0320 kg/ha); 2.0 in the experiment on Sagittaria pygmaea, L. (0.0620 kg/ha); 5.0 in the experiment with Sagittaria pygmaea, L. (0.1250 kg/ha); 9.0 with Sagittaria pygmaea, L. (0.2500 kg/ha).
As to `Cn1c(C(F)(F)F)cc(=O)n(-c2ccc3snc(COC(=O)CCl)c3c2)c1=O` [Example 368, 2,4(1H,3H)-Pyrimidinedione, 3-[3-(hydroxymethyl)-1,2-benzisothiazol-5-yl]-1-methyl-6-(trifluoromethyl)-, chloroacetate (ester)], the “herbicidal effect rating, ECHORC” value in experiment [1] (Rate 0.0320 kg/ha) is reported as 3.0; in experiment [1] (Rate 0.0620 kg/ha) it was 7.0; in experiment [1] (Rate 0.1250 kg/ha), 7.0; in experiment [1] (Rate 0.2500 kg/ha), 8.0. Further, the “herbicidal effect rating, CYPIR” value is on record as 7.0 in the experiment on Cyperus iria (Rate 0.0320 kg/ha), 9.0 with Cyperus iria (Rate 0.0620 kg/ha), 9.0 with Cyperus iria (Rate 0.1250 kg/ha) and 9.0 in the experiment on Cyperus iria (Rate 0.2500 kg/ha). The “herbicidal effect rating, CYPSE” value is reported as 0.0 in experiment [2] (Rate 0.0320 kg/ha), 4.0 in experiment [2] (Rate 0.0620 kg/ha), 7.0 in experiment [2] (Rate 0.1250 kg/ha) and 8.0 in experiment [2] (Rate 0.2500 kg/ha). Besides, the “herbicidal effect rating, MOOVA” value in experiment [3] (Rate 0.0320 kg/ha), in experiment [3] (Rate 0.0620 kg/ha), in experiment [3] (Rate 0.1250 kg/ha) and in experiment [3] (Rate 0.2500 kg/ha) was 9.0 in each case. Further, the “herbicidal effect rating, SAGPY” value in the experiment on Sagittaria pygmaea, L. (Rate 0.0320 kg/ha) was 5.0; in the experiment on Sagittaria pygmaea, L. (Rate 0.0620 kg/ha), 6.0; in the experiment on Sagittaria pygmaea, L. (Rate 0.1250 kg/ha), 9.0; with Sagittaria pygmaea, L. (Rate 0.2500 kg/ha), 9.0.
Take `Cc1ccc(OCC(=O)n2cnc3ccccc32)c(-c2nsc3ccc(-n4c(=O)cc(C(F)(F)F)n(C)c4=O)cc23)c1` [Example 62]: the “herbicidal effect rating, ECHORC” value in experiment [1] (0.0313 kg/ha) is given as 6.0; in experiment [1] (0.0625 kg/ha), 9.0; in experiment [1] (0.1250 kg/ha) it was 9.0; in experiment [1] (0.2500 kg/ha), 9.0. Further, the “herbicidal effect rating, CYPIR” value in the experiment on Cyperus iria (0.0313 kg/ha) was determined as 4.0; in the experiment on Cyperus iria (0.0625 kg/ha), 6.0; in the experiment with Cyperus iria (0.1250 kg/ha), 9.0; in the experiment on Cyperus iria (0.2500 kg/ha) it was 9.0. Besides, the “herbicidal effect rating, CYPSE” value in experiment [2] (0.0313 kg/ha) amounted to 0.0; in experiment [2] (0.0625 kg/ha) it was 1.0; in experiment [2] (0.1250 kg/ha), 2.0; in experiment [2] (0.2500 kg/ha) it was 9.0. Further, the “herbicidal effect rating, MOOVA” value in experiment [3] (0.0313 kg/ha), in experiment [3] (0.0625 kg/ha), in experiment [3] (0.1250 kg/ha) and in experiment [3] (0.2500 kg/ha) was 9.0 each time. In addition, the “herbicidal effect rating, SAGPY” value with Sagittaria pygmaea, L. (0.0313 kg/ha) worked out at 0.0; in the experiment with Sagittaria pygmaea, L. (0.0625 kg/ha), 1.0; with Sagittaria pygmaea, L. (0.1250 kg/ha), 4.0; in the experiment on Sagittaria pygmaea, L. (0.2500 kg/ha) it was 7.0.
As for `Cn1c(C(F)(F)F)cc(=O)n(-c2ccc3snc(C(Cc4ccccc4)S(C)(=O)=O)c3c2)c1=O` (stereo not drawn) [Example 604, 2,4(1H,3H)-Pyrimidinedione, 1-methyl-3-{3-[alpha(methylsulfonyl)phenethyl]-1,2-benzisothiazol-5-yl}-6-(trifluoromethyl)-], the “herbicidal effect rating, ECHORC” value in experiment [1] (Rate 0.0320 kg/ha) was 7.0; in experiment [1] (Rate 0.0620 kg/ha) it was 7.0; in experiment [1] (Rate 0.1250 kg/ha), 7.0; in experiment [1] (Rate 0.2500 kg/ha), 9.0. Further, the “herbicidal effect rating, CYPIR” value is listed as 0.0 in the experiment on Cyperus iria (Rate 0.0320 kg/ha), 3.0 in the experiment with Cyperus iria (Rate 0.0620 kg/ha), 4.0 with Cyperus iria (Rate 0.1250 kg/ha) and 6.0 in the experiment with Cyperus iria (Rate 0.2500 kg/ha). The “herbicidal effect rating, CYPSE” value in experiment [2] (Rate 0.0320 kg/ha), in experiment [2] (Rate 0.0620 kg/ha), in experiment [2] (Rate 0.1250 kg/ha) and in experiment [2] (Rate 0.2500 kg/ha) was 0.0 in each case. The “herbicidal effect rating, MOOVA” value in experiment [3] (Rate 0.0320 kg/ha) was determined as 5.0; in experiment [3] (Rate 0.0620 kg/ha), 6.0; in experiment [3] (Rate 0.1250 kg/ha), 7.0; in experiment [3] (Rate 0.2500 kg/ha) it was 8.0. The “herbicidal effect rating, SAGPY” value with Sagittaria pygmaea, L. (Rate 0.0320 kg/ha) turned out to be 0.0; in the experiment on Sagittaria pygmaea, L. (Rate 0.0620 kg/ha) it was 0.0; in the experiment with Sagittaria pygmaea, L. (Rate 0.1250 kg/ha), 0.0; in the experiment with Sagittaria pygmaea, L. (Rate 0.2500 kg/ha), 0.0.
For `COC(=O)COc1cc(C)c(I)cc1-c1nsc2ccc(-n3c(=O)cc(C(F)(F)F)n(C)c3=O)cc12` [Example 469, Acetic acid, {{6-{5-[3,6-dihydro-3-methyl-2,6-dioxo-4-(trifluoromethyl)-1(2H)-pyrimidinyl]-1,2-benzisothiazol-3-yl}-4-iodo-m-tolyl}oxy}-, methyl ester], the ECHORC herbicidal rating in experiment [1] (0.0320 kg/ha) was found to be 7.0; in experiment [1] (0.0620 kg/ha), 9.0; in experiment [1] (0.1250 kg/ha) it was 9.0; in experiment [1] (0.2500 kg/ha) it was 9.0. The CYPIR herbicidal rating in the experiment on Cyperus iria (0.0320 kg/ha) is 0.0; in the experiment on Cyperus iria (0.0620 kg/ha) it was 1.5; in the experiment with Cyperus iria (0.1250 kg/ha), 6.5; in the experiment on Cyperus iria (0.2500 kg/ha), 7.0. The CYPSE herbicidal rating worked out at 0.0 in experiment [2] (0.0320 kg/ha), 4.5 in experiment [2] (0.0620 kg/ha), 9.0 in experiment [2] (0.1250 kg/ha) and 6.0 in experiment [2] (0.2500 kg/ha). Also, the MOOVA herbicidal rating is given as 2.0 in experiment [3] (0.0320 kg/ha), 4.5 in experiment [3] (0.0620 kg/ha), 5.0 in experiment [3] (0.1250 kg/ha) and 8.0 in experiment [3] (0.2500 kg/ha). In addition, the SAGPY herbicidal rating was found to be 0.0 with Sagittaria pygmaea, L. (0.0320 kg/ha); 1.5 in the experiment on Sagittaria pygmaea, L. (0.0620 kg/ha); 2.5 with Sagittaria pygmaea, L. (0.1250 kg/ha); 3.0 in the experiment with Sagittaria pygmaea, L. (0.2500 kg/ha).
Turning to `CC(=O)OCc1nsc2ccc(-n3c(=O)cc(C(F)(F)F)n(C)c3=O)cc12` [Example 32, 3-[3-(Hydroxymethyl)-1,2-benzisothiazol-5-yl]-1-methyl-6-(trifluoromethyl)-2,4(1H,3H)-pyrimidinedione, acetate ester], the “herbicidal effect rating, ECHORC” value was found to be 2.0 in experiment [1] (0.0313 kg/ha), 3.5 in experiment [1] (0.0625 kg/ha), 4.5 in experiment [1] (0.1250 kg/ha) and 7.5 in experiment [1] (0.2500 kg/ha). The “herbicidal effect rating, CYPIR” value in the experiment with Cyperus iria (0.0313 kg/ha) is on record as 4.0; in the experiment with Cyperus iria (0.0625 kg/ha) it was 6.0; with Cyperus iria (0.1250 kg/ha), 8.0; with Cyperus iria (0.2500 kg/ha) it was 9.0. Besides, the “herbicidal effect rating, CYPSE” value is 0.0 in experiment [2] (0.0313 kg/ha), 0.0 in experiment [2] (0.0625 kg/ha), 2.0 in experiment [2] (0.1250 kg/ha) and 7.0 in experiment [2] (0.2500 kg/ha). Further, the “herbicidal effect rating, MOOVA” value in experiment [3] (0.0313 kg/ha) was found to be 8.0; in experiment [3] (0.0625 kg/ha) it was 9.0; in experiment [3] (0.1250 kg/ha), 9.0; in experiment [3] (0.2500 kg/ha), 9.0. In addition, the “herbicidal effect rating, SAGPY” value in the experiment with Sagittaria pygmaea, L. (0.0313 kg/ha) turned out to be 0.0; in the experiment on Sagittaria pygmaea, L. (0.0625 kg/ha), 0.0; with Sagittaria pygmaea, L. (0.1250 kg/ha), 2.0; in the experiment on Sagittaria pygmaea, L. (0.2500 kg/ha), 9.0.
`Cn1c(C(F)(F)F)cc(=O)n(-c2ccc3snc(COC(=O)Cc4ccc(Cl)cc4Cl)c3c2)c1=O` [Example 401, 2,4(1H,3H)-Pyrimidinedione, 3-[3-(hydroxymethyl)-1,2-benzisothiazol-5-yl]-1-methyl-6-(trifluoromethyl)-, (2,4-dichlorophenyl)acetate (ester)]: the “herbicidal effect rating, ECHORC” value in experiment [1] (Rate 0.0320 kg/ha) was found to be 0.0; in experiment [1] (Rate 0.0620 kg/ha), 0.0; in experiment [1] (Rate 0.1250 kg/ha), 2.0; in experiment [1] (Rate 0.2500 kg/ha), 6.0. Also, the “herbicidal effect rating, CYPIR” value with Cyperus iria (Rate 0.0320 kg/ha) turned out to be 3.0; with Cyperus iria (Rate 0.0620 kg/ha) it was 4.0; in the experiment on Cyperus iria (Rate 0.1250 kg/ha), 5.0; in the experiment with Cyperus iria (Rate 0.2500 kg/ha) it was 6.0. Moreover, the “herbicidal effect rating, CYPSE” value in experiment [2] (Rate 0.0620 kg/ha) came to 0.0; in experiment [2] (Rate 0.1250 kg/ha) it was 0.0; in experiment [2] (Rate 0.2500 kg/ha), 3.0. The “herbicidal effect rating, MOOVA” value in experiment [3] (Rate 0.0320 kg/ha) is 6.0; in experiment [3] (Rate 0.0620 kg/ha), 7.0; in experiment [3] (Rate 0.1250 kg/ha), 7.0; in experiment [3] (Rate 0.2500 kg/ha) it was 9.0. For the same compound, the “herbicidal effect rating, SAGPY” value in the experiment with Sagittaria pygmaea, L. (Rate 0.0320 kg/ha) worked out at 0.0; with Sagittaria pygmaea, L. (Rate 0.0620 kg/ha), 0.0; in the experiment with Sagittaria pygmaea, L. (Rate 0.1250 kg/ha), 2.0; with Sagittaria pygmaea, L. (Rate 0.2500 kg/ha), 3.0.
